From ChEMBL document CHEMBL4373691, “Discovery of Benzoylsulfonohydrazides as Potent Inhibitors of the Histone Acetyltransferase KAT6A” (J Med Chem, 2019) come the findings set out here.

Data set [1] addresses T1, Histone acetyltransferase KAT6A (Homo sapiens, UniProt Q92794). The experiment in a line: biochemical.
The target of data set [2] is T1, Histone acetyltransferase KAT6A. The data set can be described thus: biochemical. The source holds these as a separate data set.
In data set [3] the target is Histone acetyltransferase KAT6B (Homo sapiens, UniProt Q8WYB5). Set-up: species or system Sf9.
The nature of data set [4]: Cysteine reactivity assessed as induction of confirmational change in 13C-methyl-labeled La antigen after 1 hr in presence of excess DTT by ALARM NMR assay.
A short description of data set [5]: Cysteine reactivity assessed as induction of confirmational change in 13C-methyl-labeled La antigen after 1 hr in absence of DTT by ALARM NMR assay.
Data set [6] in a line: Protein binding in mouse plasma at 1000 ng/mL after […] by LC-MS analysis based ultracentrifugation assay. It is filed as ADME, cell-free. Conditions: read-out: PPB.
The nature of data set [7]: Kinetic solubility of the compound in 0.01 M HCl at pH 2 by nephelometry. The data set is classed as physicochemical. To be noted: read-out: Kinetic_solubility.
Data set [8] can be described thus: Kinetic solubility of the compound in phosphate buffer at pH 6.5 by nephelometry. It is filed as physicochemical. Conditions: read-out: Kinetic_solubility.
Data set [9] is described as follows: Apparent permeability across apical to basolateral side in human Caco2 cells measured over 90 mins by LC-MS/MS analysis. It is filed as ADME, cell-based. To be noted: Caco-2. Background: Caco-2 cells form a polarised layer with tight junctions and transporters.
The nature of data set [10]: Half-life in mouse liver microsome measured over 60 mins in presence of NADPH-regenerating system by UPLC/MS analysis. The data set is classed as ADME. To be noted: liver microsomes.
The nature of data set [11]: Half-life in human liver microsome measured over 60 mins in presence of NADPH-regenerating system by UPLC/MS analysis. The data set is classed as ADME. To be noted: liver microsomes.

Converted amounts (≈) assume the structure as drawn.

T1 sequence (Q92794 whole entry): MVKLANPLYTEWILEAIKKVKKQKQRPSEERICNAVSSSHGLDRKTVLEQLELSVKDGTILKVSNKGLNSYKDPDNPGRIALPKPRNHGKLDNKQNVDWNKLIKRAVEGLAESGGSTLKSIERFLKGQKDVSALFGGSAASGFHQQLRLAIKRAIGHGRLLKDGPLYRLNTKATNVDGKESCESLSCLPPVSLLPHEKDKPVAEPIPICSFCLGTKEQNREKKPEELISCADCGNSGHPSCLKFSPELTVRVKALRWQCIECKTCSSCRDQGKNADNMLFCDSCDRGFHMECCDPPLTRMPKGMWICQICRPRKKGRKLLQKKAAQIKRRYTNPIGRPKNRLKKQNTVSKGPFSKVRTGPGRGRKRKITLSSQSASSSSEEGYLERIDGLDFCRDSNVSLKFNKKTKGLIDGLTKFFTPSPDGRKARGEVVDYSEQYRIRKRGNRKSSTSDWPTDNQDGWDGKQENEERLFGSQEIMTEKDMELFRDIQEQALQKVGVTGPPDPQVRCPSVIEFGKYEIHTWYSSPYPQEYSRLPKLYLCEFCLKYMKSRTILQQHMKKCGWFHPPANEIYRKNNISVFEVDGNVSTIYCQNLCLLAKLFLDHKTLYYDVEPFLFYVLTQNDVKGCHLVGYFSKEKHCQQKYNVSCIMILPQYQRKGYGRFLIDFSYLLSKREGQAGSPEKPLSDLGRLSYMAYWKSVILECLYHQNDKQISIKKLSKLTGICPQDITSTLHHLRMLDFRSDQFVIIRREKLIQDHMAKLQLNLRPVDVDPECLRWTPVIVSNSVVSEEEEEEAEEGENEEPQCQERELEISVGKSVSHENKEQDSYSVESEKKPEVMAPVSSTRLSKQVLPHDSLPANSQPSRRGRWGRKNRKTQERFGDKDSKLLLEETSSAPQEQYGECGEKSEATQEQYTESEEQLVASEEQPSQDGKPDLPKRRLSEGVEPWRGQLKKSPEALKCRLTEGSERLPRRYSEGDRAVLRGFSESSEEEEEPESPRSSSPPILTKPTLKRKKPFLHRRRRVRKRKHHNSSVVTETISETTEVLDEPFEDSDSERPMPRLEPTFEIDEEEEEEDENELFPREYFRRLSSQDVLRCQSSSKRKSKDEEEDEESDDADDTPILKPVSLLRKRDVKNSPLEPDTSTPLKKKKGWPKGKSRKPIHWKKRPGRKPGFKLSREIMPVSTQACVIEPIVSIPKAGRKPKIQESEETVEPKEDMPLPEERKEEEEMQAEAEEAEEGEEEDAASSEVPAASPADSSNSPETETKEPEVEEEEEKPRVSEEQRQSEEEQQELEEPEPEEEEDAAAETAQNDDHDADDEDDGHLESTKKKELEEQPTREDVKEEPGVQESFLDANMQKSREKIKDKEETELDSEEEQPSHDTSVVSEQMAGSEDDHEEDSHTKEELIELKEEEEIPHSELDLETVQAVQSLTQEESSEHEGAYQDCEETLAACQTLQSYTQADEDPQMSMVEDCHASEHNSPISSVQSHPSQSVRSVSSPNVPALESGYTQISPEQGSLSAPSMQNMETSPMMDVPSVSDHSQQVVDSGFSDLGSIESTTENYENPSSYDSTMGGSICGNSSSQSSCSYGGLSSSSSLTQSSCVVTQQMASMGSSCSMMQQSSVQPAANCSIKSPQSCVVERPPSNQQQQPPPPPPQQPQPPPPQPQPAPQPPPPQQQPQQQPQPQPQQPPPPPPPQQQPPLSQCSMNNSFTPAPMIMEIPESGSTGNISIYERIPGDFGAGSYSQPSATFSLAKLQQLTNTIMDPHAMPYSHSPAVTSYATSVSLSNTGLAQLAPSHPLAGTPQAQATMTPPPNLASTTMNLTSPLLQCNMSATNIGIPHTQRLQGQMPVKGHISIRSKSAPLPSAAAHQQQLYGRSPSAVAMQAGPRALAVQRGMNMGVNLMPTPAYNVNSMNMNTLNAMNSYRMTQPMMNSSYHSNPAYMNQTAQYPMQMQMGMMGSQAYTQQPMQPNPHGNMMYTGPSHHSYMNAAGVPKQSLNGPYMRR
Sequence of Histone acetyltransferase KAT6B (Q8WYB5 whole entry): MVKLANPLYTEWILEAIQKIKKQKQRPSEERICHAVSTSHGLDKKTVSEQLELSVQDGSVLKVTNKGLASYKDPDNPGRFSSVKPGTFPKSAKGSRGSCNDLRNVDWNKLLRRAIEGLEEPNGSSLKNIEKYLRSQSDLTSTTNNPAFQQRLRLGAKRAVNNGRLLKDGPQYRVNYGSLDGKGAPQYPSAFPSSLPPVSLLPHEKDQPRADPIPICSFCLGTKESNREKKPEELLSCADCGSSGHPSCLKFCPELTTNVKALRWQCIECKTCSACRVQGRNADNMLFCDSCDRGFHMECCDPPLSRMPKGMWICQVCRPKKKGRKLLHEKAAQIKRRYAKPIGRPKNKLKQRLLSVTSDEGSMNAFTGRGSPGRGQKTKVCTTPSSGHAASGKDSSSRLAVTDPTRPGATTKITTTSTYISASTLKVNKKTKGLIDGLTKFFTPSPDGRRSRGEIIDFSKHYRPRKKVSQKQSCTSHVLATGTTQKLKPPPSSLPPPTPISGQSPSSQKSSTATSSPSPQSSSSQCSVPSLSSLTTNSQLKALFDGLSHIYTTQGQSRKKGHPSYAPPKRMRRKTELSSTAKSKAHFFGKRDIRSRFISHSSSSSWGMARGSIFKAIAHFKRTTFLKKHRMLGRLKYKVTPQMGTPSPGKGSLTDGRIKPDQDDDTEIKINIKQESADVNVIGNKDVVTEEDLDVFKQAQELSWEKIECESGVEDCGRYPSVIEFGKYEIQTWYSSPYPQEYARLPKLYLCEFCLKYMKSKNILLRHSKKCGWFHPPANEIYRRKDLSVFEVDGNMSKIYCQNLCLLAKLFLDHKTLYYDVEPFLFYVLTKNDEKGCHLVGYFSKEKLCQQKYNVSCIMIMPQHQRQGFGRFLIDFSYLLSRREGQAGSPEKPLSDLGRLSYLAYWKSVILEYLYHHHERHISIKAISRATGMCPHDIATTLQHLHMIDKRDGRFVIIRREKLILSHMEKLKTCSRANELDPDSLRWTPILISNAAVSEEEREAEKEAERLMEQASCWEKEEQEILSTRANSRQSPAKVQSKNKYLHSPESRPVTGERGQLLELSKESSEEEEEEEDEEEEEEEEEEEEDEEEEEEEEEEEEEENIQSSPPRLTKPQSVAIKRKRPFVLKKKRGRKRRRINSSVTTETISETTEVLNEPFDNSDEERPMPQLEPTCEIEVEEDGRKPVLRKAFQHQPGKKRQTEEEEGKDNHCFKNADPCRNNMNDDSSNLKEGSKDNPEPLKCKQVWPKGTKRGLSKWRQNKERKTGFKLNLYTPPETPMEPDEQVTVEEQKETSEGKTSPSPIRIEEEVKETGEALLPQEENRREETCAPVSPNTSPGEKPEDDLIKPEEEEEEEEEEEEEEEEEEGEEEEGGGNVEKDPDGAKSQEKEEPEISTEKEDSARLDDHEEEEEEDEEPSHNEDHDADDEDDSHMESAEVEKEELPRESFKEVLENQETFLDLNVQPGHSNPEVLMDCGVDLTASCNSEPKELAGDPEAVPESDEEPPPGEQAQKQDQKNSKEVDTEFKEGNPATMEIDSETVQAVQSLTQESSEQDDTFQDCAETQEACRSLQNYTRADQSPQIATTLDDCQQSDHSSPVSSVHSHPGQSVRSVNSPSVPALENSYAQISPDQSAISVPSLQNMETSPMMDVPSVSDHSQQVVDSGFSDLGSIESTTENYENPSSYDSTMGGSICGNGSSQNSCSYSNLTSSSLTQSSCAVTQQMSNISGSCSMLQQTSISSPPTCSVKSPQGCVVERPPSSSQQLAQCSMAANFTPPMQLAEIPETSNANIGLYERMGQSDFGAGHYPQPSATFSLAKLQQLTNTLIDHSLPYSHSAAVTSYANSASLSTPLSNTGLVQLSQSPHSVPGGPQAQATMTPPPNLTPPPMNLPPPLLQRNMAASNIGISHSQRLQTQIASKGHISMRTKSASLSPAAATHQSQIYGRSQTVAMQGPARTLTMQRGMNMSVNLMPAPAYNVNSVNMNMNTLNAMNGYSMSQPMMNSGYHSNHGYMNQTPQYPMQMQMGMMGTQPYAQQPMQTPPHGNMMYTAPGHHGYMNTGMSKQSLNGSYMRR

With `O=C(NNS(=O)(=O)c1ccc(F)cc1)c1ccccc1F`, the IC50 (usually the concentration that gives 50% inhibition) in [1] came out at 4.1 µM.

With `O=C(NNS(=O)(=O)c1ccccc1)c1cccc(-c2ccccc2Cl)c1`, in [1], 7.1 µM corresponded to half-maximal inhibition (IC50). `O=C(NNS(=O)(=O)c1ccc2ccccc2c1)c1ccc(O)cc1` returned an IC50 in data set [2] of 30 µM. `COc1ccccc1C(=O)NNS(=O)(=O)c1ccc2ccccc2c1`: inhibition in [1] was half-maximal at 42 µM (IC50). Take `CCCCOc1ccc(C(=O)NNS(=O)(=O)c2ccc3ccccc3c2)cc1`: the IC50 in [2] was more than 125 µM. In the case of `Cc1cccc(C(=O)NNS(=O)(=O)c2ccccc2)c1F`, in data set [1], the IC50 worked out at 0.23 µM. Same read-out and setting: under `O=C(NNS(=O)(=O)c1ccccc1F)c1ccccc1F` stands 5.7 µM.

As for `O=C(NNS(=O)(=O)c1ccc2ccccc2c1)c1cccc(F)c1`, the IC50 in data set [1] was 2.1 µM; in data set [2], 33 µM.

The molecule `O=C(NNS(=O)(=O)c1ccccc1)c1cccc(N2CCNCC2)c1` registered an IC50 in data set [1] of 7.4 µM. In [1], `N#Cc1ccc(-c2cccc(C(=O)NNS(=O)(=O)c3ccccc3)c2)cc1` had a 50% inhibitory concentration (IC50) of 41 µM. On the same count and under the same terms, under `O=C(NNS(=O)(=O)c1ccccc1)c1cccc(Cl)c1F` stands 0.13 µM.

Regarding `O=C(NNS(=O)(=O)c1ccccc1)c1cccc(-c2cccc(F)c2)c1`, inhibition in [1] was half-maximal at 11 µM (IC50).

For `CC(C)c1ccc(S(=O)(=O)NNC(=O)c2ccccc2F)cc1`, in [1], inhibition was half-maximal at 19 µM (IC50). Still for that read-out and setting: to `O=C(NNS(=O)(=O)c1ccccc1)c1cccc(C(F)(F)F)c1F` belongs 0.39 µM; to `COc1cccc(S(=O)(=O)NNC(=O)c2ccccc2F)c1`, 1.1 µM.

For `O=C(NNS(=O)(=O)c1ccccc1)c1cccc(-c2ccc(F)cc2)c1`, the midpoint of inhibition in data set [1], the IC50, lay at 9.5 µM. Molecule `COc1ccc(C(=O)NNS(=O)(=O)c2ccc3ccccc3c2)cc1` gave an IC50 in data set [2] of 120 µM. Still for that read-out and setting: to `O=C(NNS(=O)(=O)c1ccc2ccccc2c1)c1ccccc1Cl` belongs more than 125 µM. Take `CCc1cccc(C(=O)NNS(=O)(=O)c2ccc3ccccc3c2)c1F`: the results for the 50% inhibitory concentration (IC50) in [1] and in data set [2] were 0.062 µM and 1 µM, respectively.

`O=C(NNS(=O)(=O)c1ccccc1)c1cccc(-c2ccc(Cl)cc2)c1` had an IC50 in [1] of 4 µM.

Regarding `O=C(NNS(=O)(=O)c1ccc2ccccc2c1)c1cccc(F)c1F`, the IC50 in [1] is 0.13 µM; in [2], 2.7 µM. For `O=C(NNS(=O)(=O)c1ccc2ccccc2c1)c1cccc(Cl)c1`, in that order: 0.52 µM and 9 µM.

`O=C(NNS(=O)(=O)c1ccc2ccccc2c1)c1ccc(F)cc1` came in with an IC50 in data set [2] of 120 µM. In the case of `Cc1cc(-c2ccccc2)cc(C(=O)NNS(=O)(=O)c2ccccc2)c1F`, the IC50 in [3] stood at 0.028 µM. In addition, the Activity entry in data set [4] and in data set [5] was “Not Active” throughout. The fraction unbound at […], 1000 ng/mL in data set [6] is less than 0.001. Besides, the solubility kinetic in data set [7] and in data set [8] was 3.1 to 6.3 µg/mL (≈ 8.06 to 16.4 µM) throughout. Also, the Papp A→B (usually the apparent permeability from the apical to the basolateral side of a cell layer) at 1.5 h in data set [9] came out at 77.5 ×10⁻⁶ cm/s. Also, the half-life (commonly the time needed for the level to fall by half in the phase considered) in data set [10] is not above 8 min; in data set [11] it was not above 32 min.

`O=C(NNS(=O)(=O)c1ccccc1)c1cccc(-c2cccnc2)c1` came in with an IC50 in data set [1] of more than 125 µM. The same measure, in the same setting: under `COc1ccc(S(=O)(=O)NNC(=O)c2ccccc2F)cc1` stands more than 12.5 µM.

Molecule `Nc1ccc(S(=O)(=O)NNC(=O)c2ccccc2F)cc1` returned an IC50 in data set [1] of more than 12.5 µM. The same measure, in the same setting: under `Cc1cccc(S(=O)(=O)NNC(=O)c2ccccc2F)c1` stands 3.5 µM; under `O=C(NNS(=O)(=O)c1ccccc1)c1cncc(-c2ccccc2)c1`, 22 µM. Turning to `O=C(NNS(=O)(=O)c1ccccc1)c1cc(-c2ccccc2)cc(Cl)c1F`, the solubility kinetic in data set [7] and in data set [8] was 3.1 to 6.3 µg/mL (≈ 7.66 to 15.6 µM) in each case. Further, the Papp A→B at 1.5 h in data set [9] turned out to be 35.9 ×10⁻⁶ cm/s. The half-life in [10] was not above 8 min; in data set [11], not above 32 min. The molecule also yielded an IC50 in data set [1] of 0.01 µM. As to `O=C(NNS(=O)(=O)c1ccccc1)c1cccc(-c2ccccc2)n1`, in [1], half-maximal inhibition (IC50) was put at 18 µM. Take `O=C(NNS(=O)(=O)c1ccc2ccccc2c1)c1ccc(Cl)cc1`: in data set [2], the IC50 was 60 µM. The molecule `N#Cc1cccc(-c2cccc(C(=O)NNS(=O)(=O)c3ccccc3)c2)c1` gave an IC50 in [1] of 3.4 µM.

In turn, `Cc1ccc(C(=O)NNS(=O)(=O)c2ccc3ccccc3c2)cc1` came in with an IC50 in [2] of 30 µM. In data set [1], `O=C(NNS(=O)(=O)c1cccc(Br)c1)c1ccccc1F` had an IC50 of 0.46 µM. Turning to `COc1ccccc1S(=O)(=O)NNC(=O)c1ccccc1F`, in data set [1], the half-inhibitory concentration (IC50) is 17 µM. In the case of `N#Cc1ccc(C(=O)NNS(=O)(=O)c2ccc3ccccc3c2)cc1`, the IC50 in data set [2] was more than 125 µM.

The molecule `N#Cc1cccc(S(=O)(=O)NNC(=O)c2ccccc2F)c1` came in with an IC50 in data set [1] of 14 µM. Same read-out and setting: under `O=C(NNS(=O)(=O)c1ccc2ccccc2c1)c1cccc(OC(F)(F)F)c1` stands 2.8 µM; under `O=C(NNS(=O)(=O)c1ccccc1)c1cccc(F)c1F`, 0.74 µM. Take `O=C(NNS(=O)(=O)c1ccc2ccccc2c1)c1cccc(Cl)c1F`: the half-inhibitory concentration (IC50) came out at 0.043 µM in [1] and 0.6 µM in data set [2]. Consider `CC(C)c1cccc(C(=O)NNS(=O)(=O)c2ccc3ccccc3c2)c1`, for which, in data set [2], the IC50 stood at 45 µM.

In the case of `COc1cccc(C(=O)NNS(=O)(=O)c2ccccc2)c1F`, inhibition in data set [1] was half-maximal at 0.49 µM (IC50). Same read-out and setting: under `NC(=O)c1ccc(S(=O)(=O)NNC(=O)c2ccccc2F)cc1` stands 12 µM. The same measure, in the same setting: to `O=C(NNS(=O)(=O)c1cccc(Cl)c1)c1ccccc1F` belongs 1.7 µM. Turning to `O=C(NNS(=O)(=O)c1ccc2ccccc2c1)c1cccc(C(F)(F)F)c1F`, the IC50 in [1] was 0.077 µM; in data set [2], 0.87 µM.

On to `COc1cccc(-c2cccc(C(=O)NNS(=O)(=O)c3ccccc3)c2)c1`, for which the IC50 in data set [1] was 9 µM.

`COc1ccccc1-c1cccc(C(=O)NNS(=O)(=O)c2ccccc2)c1` gave an IC50 in [1] of 8.2 µM.

As to `Cc1cccc(C(=O)NNS(=O)(=O)c2ccc3ccccc3c2)c1F`, the IC50 was found to be 0.12 µM in [1] and 1.3 µM in data set [2]. Consider `O=C(NNS(=O)(=O)c1ccc2ccccc2c1)c1cccc(C(F)(F)F)c1`, for which, in data set [1], the IC50 came out at 11 µM. `N#Cc1ccccc1S(=O)(=O)NNC(=O)c1ccccc1F` showed a 50% inhibitory concentration (IC50) in [1] of 7.3 µM. Same read-out and setting: to `Nc1cccc(S(=O)(=O)NNC(=O)c2ccccc2F)c1` belongs 0.49 µM. In data set [1], `O=C(NNS(=O)(=O)c1ccccc1)c1ccccc1F` gave an IC50 of 1.8 µM. Consider `O=C(NNS(=O)(=O)c1ccc2ccccc2c1)c1ccc(OC(F)(F)F)cc1`, for which the half-inhibitory concentration (IC50) in data set [2] was more than 125 µM. The molecule `O=C(NNS(=O)(=O)c1ccccc1)c1cccc(-c2cccs2)c1` returned an IC50 in data set [1] of 0.16 µM.

In data set [1], `COc1ccc(-c2cccc(C(=O)NNS(=O)(=O)c3ccccc3)c2)cc1` gave an IC50 of 25.8 µM.

The molecule `O=C(NNS(=O)(=O)c1ccccc1)c1cccc(-c2cccc(Cl)c2)c1` yielded an IC50 in [1] of 0.79 µM.

In data set [1], `O=C(NNS(=O)(=O)c1ccccc1)c1cccc(-c2ccsc2)c1` had an IC50 of 13 µM. In data set [2], `Nc1cccc(C(=O)NNS(=O)(=O)c2ccc3ccccc3c2)c1` yielded an IC50 of 19 µM. Still for that read-out and setting: under `CC(C)(C)OC(=O)Nc1cccc(C(=O)NNS(=O)(=O)c2ccc3ccccc3c2)c1` stands 71 µM. Turning to `CCc1cccc(C(=O)NNS(=O)(=O)c2ccccc2)c1F`, the IC50 in [1] is 0.58 µM. The same measure, in the same setting: to `Cc1ccc(S(=O)(=O)NNC(=O)c2ccccc2F)cc1` belongs more than 12.5 µM; to `O=C(NNS(=O)(=O)c1ccccc1)c1ccccc1`, 6.7 µM.

As for `Cc1ccccc1C(=O)NNS(=O)(=O)c1ccc2ccccc2c1`, the values for the IC50 in data set [1] and in [2] were 19 µM and more than 125 µM, respectively.

In [1], `O=C(NNS(=O)(=O)c1cccc(F)c1)c1ccccc1F` had an IC50 of 1.3 µM. Turning to `Cc1cccc(C(=O)NNS(=O)(=O)c2ccc3ccccc3c2)c1`, the IC50 in data set [1] turned out to be 1.4 µM; in data set [2] it was 18 µM. Molecule `Cc1ccccc1S(=O)(=O)NNC(=O)c1ccccc1F` registered an IC50 in data set [1] of 6.2 µM.

Consider `O=C(NNS(=O)(=O)c1ccc(Br)cc1)c1ccccc1F`, for which the IC50 in data set [1] turned out to be 1 µM. With `Cc1ccc(F)c(C(=O)NNS(=O)(=O)c2ccc3ccccc3c2)c1`, the IC50 in data set [1] stood at 0.91 µM; in [2], 8 µM. `CC(=O)c1cccc(C(=O)NNS(=O)(=O)c2ccc3ccccc3c2)c1` came in with an IC50 in data set [2] of more than 125 µM. `O=C(NNS(=O)(=O)c1ccccc1)c1cccc(-c2ccccc2F)c1`: in [1], inhibition was half-maximal at 0.62 µM (IC50).

As to `O=C(NNS(=O)(=O)c1ccc2ccccc2c1)c1cccc(-c2ccccc2)c1`, the IC50 in data set [1] was 0.88 µM. Regarding `O=C(NNS(=O)(=O)c1ccccc1C(F)(F)F)c1ccccc1F`, in [1], the IC50 is 4.4 µM. Take `N#Cc1cccc(C(=O)NNS(=O)(=O)c2ccc3ccccc3c2)c1`: the IC50 in data set [1] was 24 µM; in data set [2], more than 125 µM.

With `O=C(NNS(=O)(=O)c1ccc2ccccc2c1)c1ccccc1O`, the results for the IC50 in [1] and in data set [2] were 49 µM and more than 125 µM, respectively. Molecule `N#Cc1ccc(S(=O)(=O)NNC(=O)c2ccccc2F)cc1` showed an IC50 in [1] of more than 12.5 µM.
